In patent US20090286799A1, “METHODS FOR THE TREATMENT OF BRAIN EDEMA” (priority 2008, published 2009):

What was measured:
[1] = system: Middle Cerebral Artery Occlusion (MCAo) rats; assay: Middle cerebral artery occlusion (MCAo) rat model: infarct volume, edema volume, premature mortality; type: in vivo, male Sprague-Dawley rats
Protocol: For Middle Cerebral Artery Occlusion (MCAo), male Sprague-Dawley rats (270 to 330 g) were anesthetized with gaseous isoflurane. With aseptic surgical techniques, a laser-Doppler probe was placed on the right temporal-lateral portion of the skull over a region of the cortex which is supplied by the middle cerebral artery to record cerebral blood flow (CBF). CBF was recorded before and after arterial occlusion. The bifurcation of the right external common carotid 8 artery (ECA) and internal common carotid artery (ICA) was surgically exposed. A 4-0 monofilament suture treated with a silicone coating to enlarge the tip to better achieve an arterial block was placed into the ECA stump, and advanced up the ICA approximately 20 mm until a drop in CBF of approximately 75% or greater was measured by laser Doppler flowmetry (PeriFlux PF5010, Perimed). The duration of the ischemia was 120 minutes.
PAN-811 was originally dissolved to a concentration of 25.6 mmol/L in 7% (v/v) polyethylene glycol (PEG) 300, 3% ethanol (EtOH), 28.6 mmol/L citric acid and 5.7 mmol/L L-ascorbic acid solution. 25.6 mmol/L was the highest concentration of PAN-811 used for dosing. This solution was further diluted with normal saline to produce dosing solutions of 2.56 mmol/L, 5.12 mmol/L, and 10.2 mmol/L on the day of surgery. Vehicle dosing solutions were identical in components to the 5.12 mmol/L PAN-811 group (Vehicle Low), or the 10.2 mmol/L group (Vehicle High). These treatments were delivered intravenously route into MCAo rats at reperfusion time. […]
After 22 hours of treatment, the animals were sacrificed by CO2 asphyxiation, and their brains sectioned at 2 mm intervals. […] Brain areas were traced and measured using a computerized image analysis system (SimplePCI Version 4.0.0, Compix Inc) to determine infarct volume (in cubic millimeters, mm^3), whereby unstained areas were defined as ischemic lesions of infarcted tissue.
Ischemic stroke often results in brain edema (Ayata et al., 2002). Therefore, the volumes for both ipsilateral and contralateral side hemispheres of MCAo rats were measured 22 hours later, and the edema volumes (hemisphere volume of the ipsilateral side hemisphere volume of contralateral one) were calculated, and expressed as mean±SEM (FIG. 1B). […]
Brain edema can result in death of MCAo rats. Therefore, the mortalities for vehicle groups and PAN-811 treated groups, as explained in Examples 1 and 2, were counted (FIG. 1C). Mortalities of general vehicle treated groups (open bar) and collective PAN-811 treated groups (black bar) were determined and premature death rates were expressed as percentage of total animal number in each condition. […]

[2] = target: T1, Recombinant human pro-MMP-9 (Homo sapiens, UniProt P14780); assay: MMP Assay Kit (5-FAM/QXL520 FRET peptide) for MMP-9 bioactivity; type: biochemical; conditions: final concentration of PAN-811 1 mM, calcium 0.4 mM, 30 min room temperature
T1 construct: purchased AnaSpec 72009
Excerpt: The principle behind this analysis is as follows. A 5-FAM/QXL™520 fluorescence resonance energy transfer (FRET) peptide is used as a substrate for MMP. The fluorescence of 5-FAM is quenched by QXL™520 in intact FRET peptide. However, upon cleavage of FRET into two separate fragments by MMP, in the presence of Ca^2+, the fluorescence of 5-FAM is recovered, and can be monitored at excitation/emission wavelengths of […]/520 nm with a fluorometer. Thus, an inhibitor of MMP-9 could suppress the cleavage of FRET by MMP-9 and decrease the fluorescence intensity of 5-FAM. To test the effect of PAN-811 on the bioactivity of MMP-9, black 96-well plates (Cat #3603, Costar®), Corning Inc.) were pre-warmed at 37° C. 4-aminophenylmercuric acetate (APMA) was diluted 20-fold with assay buffer (both in MMP assay kit) to a final concentration of […]. Recombinant human pro-MMP-9 (10 μg/ml, Cat #72009, AnaSpec, San Jose) was pre-incubated with 1 mM APMA at 37° C. for 2 hours to activate this enzyme. […] Treated wells were incubated at room temperature for 30 min and the fluorescence intensity of 5-FAM was determined for each sample by measurement at excitation/emission wavelengths of 485 nm/520 nm with a fluorometer and reported in RFU (FIGS. 6A and 6B). […]

T1 sequence (P14780 107-707 limits assumed): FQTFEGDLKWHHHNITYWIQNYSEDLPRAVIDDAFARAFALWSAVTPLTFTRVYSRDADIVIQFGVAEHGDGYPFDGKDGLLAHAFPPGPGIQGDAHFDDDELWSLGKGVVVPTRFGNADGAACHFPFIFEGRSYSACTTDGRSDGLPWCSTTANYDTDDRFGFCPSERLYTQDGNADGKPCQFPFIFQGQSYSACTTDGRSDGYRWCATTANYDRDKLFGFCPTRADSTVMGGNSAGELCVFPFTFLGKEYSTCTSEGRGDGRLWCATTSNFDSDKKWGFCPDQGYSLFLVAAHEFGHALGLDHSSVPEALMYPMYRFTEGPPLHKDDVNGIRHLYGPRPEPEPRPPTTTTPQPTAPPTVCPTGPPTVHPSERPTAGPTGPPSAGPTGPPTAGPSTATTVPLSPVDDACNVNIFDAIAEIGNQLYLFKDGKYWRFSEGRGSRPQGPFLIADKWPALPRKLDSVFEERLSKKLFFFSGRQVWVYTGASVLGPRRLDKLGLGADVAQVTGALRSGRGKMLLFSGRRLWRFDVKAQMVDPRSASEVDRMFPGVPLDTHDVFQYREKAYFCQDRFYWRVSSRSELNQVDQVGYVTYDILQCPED

NC(=S)N/N=C/c1ncccc1N [PAN-811, 3-aminopyridine-2-carboxaldehyde thiosemicarbazone]
reduction in edema volume ([1]; 2 mg/kg i.v., compared to the high vehicle group, 22 hours): 70% | reduction in edema volume ([1]; 5 mg/kg i.v., compared with High vehicle group, 22 hours (data not shown)): 31% | premature mortality rate ([1]; all PAN-811 treated groups (9 of 57), vehicle groups 28%): 15.8% | reduction of premature mortality ([1]; all PAN-811 treated groups versus the 2 vehicle-treated groups): 44% | suppression of pro-MMP-9-catalyzed increase in fluorescence intensity [2]: 64%
